# Activity calls are given as the source filed them. The calls are words filed in the database; no cut-off is given here.
# Test system: LAPC4
# Assay: Inhibition of colony formation in human LAPC4 cells at 10 uM incubated for 10 days by crystal violet staining based assay
# Assay type: functional
# Conditions: LAPC4, 240 h, time 10 day
row,Structure (SMILES),inhibition at 10 µM [%]
1,Cc1c2c(nn1-c1ccc(C#N)cc1)C[C@@H]1CC[C@@H]3[C@H](CC[C@]4(C)[C@@H](O)CC[C@@H]34)[C@@]1(C)C2,6
2,C[C@]12Cc3c(nn(-c4ccccc4)c3-c3ccccc3)C[C@@H]1CC[C@@H]1[C@@H]2CC[C@]2(C)[C@@H](O)CC[C@@H]12,≥ 100
3,C[C@]12CC[C@H](O)CC1=CC[C@@H]1[C@@H]2CC[C@]2(C)C(n3cnc4ccccc43)=CC[C@@H]12 [GALETERONE],30
4,C[C@]12Cc3cnn(-c4ccc(C#N)cc4)c3C[C@@H]1CC[C@@H]1[C@@H]2CC[C@]2(C)[C@@H](O)CC[C@@H]12,12
5,Cc1c2c(nn1-c1ccc(Cl)cc1)C[C@@H]1CC[C@@H]3[C@H](CC[C@]4(C)C(=O)CC[C@@H]34)[C@@]1(C)C2,16
6,C[C@]12CC[C@H](O)CC1=CC[C@@H]1[C@@H]2CC[C@]2(C)C(c3cccnc3)=CC[C@@H]12 [ABIRATERONE],70
7,COc1ccc(-n2nc3c(c2C)C[C@@]2(C)[C@@H](CC[C@@H]4[C@@H]2CC[C@]2(C)C(=O)CC[C@@H]42)C3)cc1,20
8,Cc1c2c(nn1-c1ccc(F)cc1)C[C@@H]1CC[C@@H]3[C@H](CC[C@]4(C)C(=O)CC[C@@H]34)[C@@]1(C)C2,15
9,CNC(=O)c1ccc(N2C(=S)N(c3ccc(C#N)c(C(F)(F)F)c3)C(=O)C2(C)C)cc1F [ENZALUTAMIDE],44
10,COc1ccc(-n2nc3c(c2C)C[C@@]2(C)[C@@H](CC[C@@H]4[C@@H]2CC[C@]2(C)[C@@H](O)CC[C@@H]42)C3)cc1,7
11,C[C@]12Cc3cnn(-c4ccc([N+](=O)[O-])cc4)c3C[C@@H]1CC[C@@H]1[C@@H]2CC[C@]2(C)[C@@H](O)CC[C@@H]12,15
12,Cc1c2c(nn1-c1ccc(Cl)cc1)C[C@@H]1CC[C@@H]3[C@H](CC[C@]4(C)[C@@H](O)CC[C@@H]34)[C@@]1(C)C2,4

# Test system: LAPC4
# Assay: Inhibition of colony formation in human LAPC4 cells at 5 uM incubated for 10 days by crystal violet staining based assay
# Assay type: functional, cell-based
# Conditions: time 10.0 day
row,Structure (SMILES),inhibition
1,Cc1c2c(nn1-c1ccc(Br)cc1)C[C@@H]1CC[C@@H]3[C@H](CC[C@]4(C)C(=O)CC[C@@H]34)[C@@]1(C)C2,Active
2,Cc1c2c(nn1-c1ccc(C#N)cc1)C[C@@H]1CC[C@@H]3[C@H](CC[C@]4(C)[C@@H](O)CC[C@@H]34)[C@@]1(C)C2,Active
3,Cc1c2c(nn1-c1ccc(Cl)cc1)C[C@@H]1CC[C@@H]3[C@H](CC[C@]4(C)C(=O)CC[C@@H]34)[C@@]1(C)C2,Active
4,COc1ccc(-n2nc3c(c2C)C[C@@]2(C)[C@@H](CC[C@@H]4[C@@H]2CC[C@]2(C)C(=O)CC[C@@H]42)C3)cc1,Active
5,Cc1c2c(nn1-c1ccc(F)cc1)C[C@@H]1CC[C@@H]3[C@H](CC[C@]4(C)C(=O)CC[C@@H]34)[C@@]1(C)C2,Active
6,COc1ccc(-n2nc3c(c2C)C[C@@]2(C)[C@@H](CC[C@@H]4[C@@H]2CC[C@]2(C)[C@@H](O)CC[C@@H]42)C3)cc1,Active
7,Cc1c2c(nn1-c1ccc(Cl)cc1)C[C@@H]1CC[C@@H]3[C@H](CC[C@]4(C)[C@@H](O)CC[C@@H]34)[C@@]1(C)C2,Active

# Test system: DU-145
# Assay: Cytotoxicity against human DU-145 cells assessed as cell viability at 20 uM incubated for 72 hrs by resazurin dye based microplate reader assay
# Assay type: functional
# Conditions: read-out: Activity
row,Structure (SMILES),viability at 20 µM [%]
1,Cc1c2c(nn1-c1ccc(C#N)cc1)C[C@@H]1CC[C@@H]3[C@H](CC[C@]4(C)[C@@H](O)CC[C@@H]34)[C@@]1(C)C2,50
2,C[C@]12Cc3c(nn(-c4ccccc4)c3-c3ccccc3)C[C@@H]1CC[C@@H]1[C@@H]2CC[C@]2(C)[C@@H](O)CC[C@@H]12,12
3,C[C@]12CC[C@H](O)CC1=CC[C@@H]1[C@@H]2CC[C@]2(C)C(n3cnc4ccccc43)=CC[C@@H]12 [GALETERONE],≥ 100
4,C[C@]12Cc3cnn(-c4ccc(C#N)cc4)c3C[C@@H]1CC[C@@H]1[C@@H]2CC[C@]2(C)[C@@H](O)CC[C@@H]12,88
5,Cc1c2c(nn1-c1ccc(Cl)cc1)C[C@@H]1CC[C@@H]3[C@H](CC[C@]4(C)C(=O)CC[C@@H]34)[C@@]1(C)C2,≥ 100
6,C[C@]12CC[C@H](O)CC1=CC[C@@H]1[C@@H]2CC[C@]2(C)C(c3cccnc3)=CC[C@@H]12 [ABIRATERONE],≥ 100
7,COc1ccc(-n2nc3c(c2C)C[C@@]2(C)[C@@H](CC[C@@H]4[C@@H]2CC[C@]2(C)C(=O)CC[C@@H]42)C3)cc1,≥ 100
8,Cc1c2c(nn1-c1ccc(F)cc1)C[C@@H]1CC[C@@H]3[C@H](CC[C@]4(C)C(=O)CC[C@@H]34)[C@@]1(C)C2,≥ 100
9,CNC(=O)c1ccc(N2C(=S)N(c3ccc(C#N)c(C(F)(F)F)c3)C(=O)C2(C)C)cc1F [ENZALUTAMIDE],96
10,COc1ccc(-n2nc3c(c2C)C[C@@]2(C)[C@@H](CC[C@@H]4[C@@H]2CC[C@]2(C)[C@@H](O)CC[C@@H]42)C3)cc1,29
11,C[C@]12Cc3cnn(-c4ccc([N+](=O)[O-])cc4)c3C[C@@H]1CC[C@@H]1[C@@H]2CC[C@]2(C)[C@@H](O)CC[C@@H]12,99
12,Cc1c2c(nn1-c1ccc(Cl)cc1)C[C@@H]1CC[C@@H]3[C@H](CC[C@]4(C)[C@@H](O)CC[C@@H]34)[C@@]1(C)C2,107

# Test system: not listed separately
# Assay: Downregulation of AR protein expression in human LAPC4 cells assessed as AR levels at 10 uM incubated for 24 hrs by immunoblotting analysis
# Assay type: functional
# Conditions: not given
row,Structure (SMILES),Activity
1,C[C@]12Cc3c(nn(-c4ccccc4)c3-c3ccccc3)C[C@@H]1CC[C@@H]1[C@@H]2CC[C@]2(C)[C@@H](O)CC[C@@H]12,>=100%
2,C[C@]12CC[C@H](O)CC1=CC[C@@H]1[C@@H]2CC[C@]2(C)C(n3cnc4ccccc43)=CC[C@@H]12 [GALETERONE],81%
3,C[C@]12Cc3cnn(-c4ccc(C#N)cc4)c3C[C@@H]1CC[C@@H]1[C@@H]2CC[C@]2(C)[C@@H](O)CC[C@@H]12,>=100%
4,C[C@]12CC[C@H](O)CC1=CC[C@@H]1[C@@H]2CC[C@]2(C)C(c3cccnc3)=CC[C@@H]12 [ABIRATERONE],88%
5,CNC(=O)c1ccc(N2C(=S)N(c3ccc(C#N)c(C(F)(F)F)c3)C(=O)C2(C)C)cc1F [ENZALUTAMIDE],85%
6,C[C@]12Cc3cnn(-c4ccc([N+](=O)[O-])cc4)c3C[C@@H]1CC[C@@H]1[C@@H]2CC[C@]2(C)[C@@H](O)CC[C@@H]12,>=100%

# Test system: CWR22R
# Assay: Cytotoxicity against human 22Rv1 cells assessed as cell viability at 20 uM incubated for 72 hrs by resazurin dye based microplate reader assay
# Assay type: functional
# Conditions: read-out: Activity
row,Structure (SMILES),viability at 20 µM [%]
1,Cc1c2c(nn1-c1ccc(C#N)cc1)C[C@@H]1CC[C@@H]3[C@H](CC[C@]4(C)[C@@H](O)CC[C@@H]34)[C@@]1(C)C2,43
2,C[C@]12Cc3c(nn(-c4ccccc4)c3-c3ccccc3)C[C@@H]1CC[C@@H]1[C@@H]2CC[C@]2(C)[C@@H](O)CC[C@@H]12,47
3,C[C@]12CC[C@H](O)CC1=CC[C@@H]1[C@@H]2CC[C@]2(C)C(n3cnc4ccccc43)=CC[C@@H]12 [GALETERONE],95
4,C[C@]12Cc3cnn(-c4ccc(C#N)cc4)c3C[C@@H]1CC[C@@H]1[C@@H]2CC[C@]2(C)[C@@H](O)CC[C@@H]12,65
5,Cc1c2c(nn1-c1ccc(Cl)cc1)C[C@@H]1CC[C@@H]3[C@H](CC[C@]4(C)C(=O)CC[C@@H]34)[C@@]1(C)C2,75
6,C[C@]12CC[C@H](O)CC1=CC[C@@H]1[C@@H]2CC[C@]2(C)C(c3cccnc3)=CC[C@@H]12 [ABIRATERONE],≥ 100
7,COc1ccc(-n2nc3c(c2C)C[C@@]2(C)[C@@H](CC[C@@H]4[C@@H]2CC[C@]2(C)C(=O)CC[C@@H]42)C3)cc1,77
8,Cc1c2c(nn1-c1ccc(F)cc1)C[C@@H]1CC[C@@H]3[C@H](CC[C@]4(C)C(=O)CC[C@@H]34)[C@@]1(C)C2,75
9,CNC(=O)c1ccc(N2C(=S)N(c3ccc(C#N)c(C(F)(F)F)c3)C(=O)C2(C)C)cc1F [ENZALUTAMIDE],≥ 100
10,COc1ccc(-n2nc3c(c2C)C[C@@]2(C)[C@@H](CC[C@@H]4[C@@H]2CC[C@]2(C)[C@@H](O)CC[C@@H]42)C3)cc1,54
11,C[C@]12Cc3cnn(-c4ccc([N+](=O)[O-])cc4)c3C[C@@H]1CC[C@@H]1[C@@H]2CC[C@]2(C)[C@@H](O)CC[C@@H]12,97
12,Cc1c2c(nn1-c1ccc(Cl)cc1)C[C@@H]1CC[C@@H]3[C@H](CC[C@]4(C)[C@@H](O)CC[C@@H]34)[C@@]1(C)C2,52

# Test system: LAPC4
# Assay: Cytotoxicity against human LAPC4 cells assessed as cell viability at 20 uM incubated for 72 hrs by resazurin dye based microplate reader assay
# Assay type: functional
# Conditions: read-out: Activity
row,Structure (SMILES),viability at 20 µM [%]
1,Cc1c2c(nn1-c1ccc(C#N)cc1)C[C@@H]1CC[C@@H]3[C@H](CC[C@]4(C)[C@@H](O)CC[C@@H]34)[C@@]1(C)C2,73
2,C[C@]12Cc3c(nn(-c4ccccc4)c3-c3ccccc3)C[C@@H]1CC[C@@H]1[C@@H]2CC[C@]2(C)[C@@H](O)CC[C@@H]12,72
3,C[C@]12CC[C@H](O)CC1=CC[C@@H]1[C@@H]2CC[C@]2(C)C(n3cnc4ccccc43)=CC[C@@H]12 [GALETERONE],≥ 76
4,C[C@]12Cc3cnn(-c4ccc(C#N)cc4)c3C[C@@H]1CC[C@@H]1[C@@H]2CC[C@]2(C)[C@@H](O)CC[C@@H]12,65
5,Cc1c2c(nn1-c1ccc(Cl)cc1)C[C@@H]1CC[C@@H]3[C@H](CC[C@]4(C)C(=O)CC[C@@H]34)[C@@]1(C)C2,38
6,C[C@]12CC[C@H](O)CC1=CC[C@@H]1[C@@H]2CC[C@]2(C)C(c3cccnc3)=CC[C@@H]12 [ABIRATERONE],100
7,COc1ccc(-n2nc3c(c2C)C[C@@]2(C)[C@@H](CC[C@@H]4[C@@H]2CC[C@]2(C)C(=O)CC[C@@H]42)C3)cc1,57
8,Cc1c2c(nn1-c1ccc(F)cc1)C[C@@H]1CC[C@@H]3[C@H](CC[C@]4(C)C(=O)CC[C@@H]34)[C@@]1(C)C2,42
9,CNC(=O)c1ccc(N2C(=S)N(c3ccc(C#N)c(C(F)(F)F)c3)C(=O)C2(C)C)cc1F [ENZALUTAMIDE],81
10,COc1ccc(-n2nc3c(c2C)C[C@@]2(C)[C@@H](CC[C@@H]4[C@@H]2CC[C@]2(C)[C@@H](O)CC[C@@H]42)C3)cc1,82
11,C[C@]12Cc3cnn(-c4ccc([N+](=O)[O-])cc4)c3C[C@@H]1CC[C@@H]1[C@@H]2CC[C@]2(C)[C@@H](O)CC[C@@H]12,40
12,Cc1c2c(nn1-c1ccc(Cl)cc1)C[C@@H]1CC[C@@H]3[C@H](CC[C@]4(C)[C@@H](O)CC[C@@H]34)[C@@]1(C)C2,47

# — ChEMBL document CHEMBL5346877, “A-ring-fused pyrazoles of dihydrotestosterone targeting prostate cancer cells via the downregulation of the androgen receptor” (Eur J Med Chem, 2023)
